Assay: in vitro
Conditions: human, hela cells, % viability

Structure (SMILES) | viability at 28.5 h, 10 µM | viability at 28.5 h, 10 µM (bulk resorufin, single well)
O=C(O)c1ccc(-c2c(Cl)cc([N+](=O)[O-])cc2Cl)o1 [CBK026623] | 102% | 
CCOC(=O)c1ccc(-c2[nH]cnc2-c2c(C)cc(OC)cc2O)o1 [CBK026647] | 113% | 
O=S(=O)(Nc1nnc(C(F)(F)F)s1)c1ccc(F)cc1 [CBK026663] | 91.4% | 
COC(=O)c1ccsc1NS(=O)(=O)c1ccccc1 [CBK026667] | 88.7% | 
Cc1ccc(S(=O)(=O)Nc2nnc(SCC(=O)Nc3ccc4c(c3)OCO4)s2)cc1 [CBK026675] | 100% | 
COC(=O)c1scc(NS(=O)(=O)c2ccc(Cl)cc2Cl)c1C(=O)OC [CBK026681] | 89.4% | 
COC(=O)c1c(NC(=O)c2ccccc2)csc1C [CBK026684] | 90.3% | 
Nc1nonc1-c1noc(-c2cccc(Cl)c2)n1 [CBK026691] | 90.2% | 
CCC#CC(=O)Nc1cncc(OC2CCNCC2)n1 [CBK026731T] | 93% | 
CSc1nc(NC(=O)C2CCCO2)cc(N2CCNCC2)n1 (stereo not drawn) [CBK026740T] | 90.5% | 
CN1CCN(c2n[nH]c(N)n2)CC1 [CBK026743] | 90.5% | 
CCOC(=O)c1sc(Cl)nc1C(F)(F)F [CBK026746] | 103% | 
O=C(NCCN1CCOCC1)C1CC2CCC1C2 (stereo not drawn) [CBK026764] | 115% | 
CCN(CC(O)COc1cc(C)c(Cl)c(C)c1)S(=O)(=O)O (stereo not drawn) [CBK026767N] | 106% | 
COC(=O)n1c(=O)oc2ccc(Cl)cc21 [CBK026774] | 101% | 
CC(NC(=O)N(Cc1c[nH]c(-c2ccccc2)n1)CC(C)(C)CN)c1cccc2ccccc12 (stereo not drawn) [CBK026801C] | 96.3% | 
CC(C)(CN)CN(Cc1ccccc1C(F)(F)F)C(=O)Nc1ccc(Cl)cc1Cl [CBK026832C] | 93.5% | 
O=C(O)c1cnc(Cl)c(Br)c1 [CBK026874] | 83.7% | 
O=C1CSC(Nc2nc(-c3ccccc3)cs2)=N1 [CBK026880] | 104% | 
CC(C)(C)C1CCC(OC(=O)CCC(=O)O)CC1 (stereo not drawn) [CBK026882] | 105% | 
O=S(=O)(CCSc1nc2ccccc2s1)c1nc2ccccc2s1 [CBK026908] | 92.4% | 
Brc1ccc(-c2nc(CSc3nnnn3C3CCCCC3)no2)cc1 [CBK026913] | 110% | 
CC1CCc2nc(NS(=O)(=O)c3ccccc3)sc2C1 (stereo not drawn) [CBK026915] | 110% | 
COC(=O)Nc1nc2cc(F)c(Cl)cc2[nH]1 [CBK026927] | 102% | 
CC(Oc1ccccc1Br)c1nc(-c2nonc2N)no1 (stereo not drawn) [CBK026982] | 86.2% | 
CCOC(=O)C1CCN(Cc2cccs2)CC1 [CBK026999] | 86.3% | 

Structure (SMILES) | viability at 28.5 h, 10 µM | viability at 28.5 h, 10 µM (bulk resorufin, single well)
CN(C)CC(O)CN1C(=O)NC(C)(C)C1=O (stereo not drawn) [CBK027078] | 114% | 
O=c1[nH][nH]c2nc(O)cc(C(F)(F)F)c12 [CBK027081] | 109% | 
OC1CSc2nc(-c3cnccn3)nn2C1 (stereo not drawn) [CBK027096] | 97.8% | 
Nc1nc(N)c2nc(C3OCCO3)cnc2n1 [CBK027115] | 114% | 
CNCCc1csc2ccccc12 [CBK027127C] |  | 118%
CNC(C)Cc1ccccc1Sc1ccccc1 (stereo not drawn) [CBK027167G] | 98% | 
CN1C(c2ccccc2)=NO[C@]1(C)c1ccccc1 [CBK027170] | 90% | 
Brc1cnn(-c2ccccc2)c1 [CBK027172] | 87.6% | 
CCOC(=O)C1=C(C)N(CCO)C(=O)NC1c1ccccc1Br (stereo not drawn) [CBK027192] | 104% | 
CCOC(NC(=O)Nc1ccc(Br)cc1)(C(F)(F)F)C(F)(F)F [CBK027208] | 91.2% | 
Cc1n[nH]c(C)c1CCCCCOc1ccccc1 [CBK027211C] | 84.3% | 
CC1(C(=O)O)CCCC2(C)c3cc(O)ccc3CCC12 (stereo not drawn) [CBK027214] | 97.4% | 
Cc1ccc(S(=O)(=O)Nn2cnnc2)cc1 [CBK027263] | 108% | 
CSc1nsc(NC(=O)Nc2ccccc2)n1 [CBK027286] | 97.9% | 
c1csc(CN2CCNCC2)c1 [CBK027324] | 105% | 
O=C(Nc1cccc(C(F)(F)F)c1)c1nc[nH]n1 [CBK027341] | 89.4% | 
CCN(CC)c1nc2n(c(=O)n1)CCN2CC [CBK027342] | 94.9% | 
CC(C)=NNC(=O)Nc1nonc1N [CBK027368] | 99.2% | 
CCOc1nc(NCCC2=CCCCC2)nc(OCC)n1 [CBK027387] | 86.9% | 
Nc1nc(-c2ccccc2I)n[nH]1 [CBK027413] | 93.4% | 
Cc1c(NC(=O)Nc2ccccc2)sc(=S)n1C [CBK027434] | 90.6% | 
CCOc1cc(C(=S)N2CCOCC2)ccc1OCc1ccccc1 [CBK027466] | 99.1% | 
O=C(CSc1nnc(COc2ccc(Br)cc2)o1)OC1CCCCC1 [CBK027482] | 88.8% | 
Cc1c(NC(=O)Nc2ccc(Cl)cc2)sc(=S)n1C [CBK027495] | 93.4% | 
CCN(CC)C(=O)N1CCN(CCC#N)CC1 [CBK027538] | 94.9% | 
Clc1ccc(-c2c[nH]cn2)cc1 [CBK027542] | 111% | 

Structure (SMILES) | viability at 28.5 h, 10 µM | viability at 28.5 h, 10 µM (bulk resorufin, single well)
CN(CCOC(=O)c1cccnc1)C(C)(C)C [CBK027543C] | 88.8% | 
Cc1cc2nc(SCCO)[nH]c2cc1C [CBK027546] | 94.1% | 
Oc1ccccc1C(=S)N1CCCCC1 [CBK027552] | 92.8% | 
NC(=O)c1c[nH]c2ccccc12 [CBK027556] | 80.7% | 
CC(C)(C)c1ccc(OCC(=O)Nn2cnnc2)cc1 [CBK027576] | 90.3% | 
CC(C)OC(=O)c1nnn(-c2nonc2N)c1CN1CCCCCC1 [CBK027601] | 94% | 
COc1ccc(Nc2nc(Cl)nc(NCCN3CCOCC3)n2)cc1 [CBK027610] | 104% | 
Brc1ccc(CN2CCN(Cc3c[nH]c4ccccc34)CC2)cc1 [CBK027622] | 85.4% | 
Cc1nc(C)c(C(=O)c2coc3ccc(O)cc23)o1 [CBK027631] | 94.1% | 
O=C(CN1CCCCC1)Nc1cccc(-n2cnnn2)c1 [CBK027661] | 105% | 
Cn1c(=O)c(-c2nc3ccccc3[nH]2)c(O)c2ccccc21 [CBK027678] | 92.7% | 
c1ccc(SCCN2CCOCC2)cc1 [CBK027679] | 97.8% | 
O=c1nc(C(F)(F)F)n2ccccc2n1 [CBK027683] | 97.2% | 
Brc1ccc(-n2cnnn2)cc1 [CBK027696] | 110% | 
NCC1OCCc2ccccc21 (stereo not drawn) [CBK027717] | 108% | 
CCCCCC1=NN(C(=O)OCC)C(O)(C(F)(F)F)C1 (stereo not drawn) [CBK027739] | 94.9% | 
Cc1ccc(SCc2nc3ncccn3c2Br)cc1 [CBK027744] | 85.2% | 
CC(=O)NC(O)C(=O)c1cccs1 (stereo not drawn) [CBK027756] | 111% | 
S=c1[nH]cnc2sc3c(c12)CCCC3 [CBK027787] | 73.7% | 
Cc1n[nH]c(C)c1Sc1nnc(O)nc1O [CBK027833] | 87.2% | 
N#Cc1ccccc1CSc1ncn[nH]1 [CBK027835] | 95.1% | 
CCCCOC(=O)CCNc1n[nH]c(=O)[nH]c1=O [CBK027838] | 97.3% | 
CCOC(=O)Nc1ccsc1C(=O)OC [CBK027880] | 88.6% | 
O=C(O)c1cc(-c2ccco2)nc2ccccc12 [CBK027882] | 98.3% | 
Cc1nnc(N/N=C\c2c(Cl)cccc2Cl)[nH]c1=O [CBK027921] | 110% | 
C(=N\N1CCOCC1)/c1cccs1 [CBK027942] | 96.9% | 

Structure (SMILES) | viability at 28.5 h, 10 µM | viability at 28.5 h, 10 µM (bulk resorufin, single well)
CC(NCC(O)COCc1ccc(Cl)cc1)c1ccccc1 (stereo not drawn) [CBK027972C] | 87.5% | 
O=C(O)C1CCC(CNS(=O)(=O)c2ccc(Br)cc2)CC1 (stereo not drawn) [CBK027994] | 86.1% | 
FC(F)Oc1ccc(NC(=S)NCCN2CCOCC2)cc1 [CBK028000] | 87.7% | 
CN(C)C(c1ccccc1)c1nnnn1C1CCCCC1 (stereo not drawn) [CBK028032] | 105% | 
CCCN(c1nc(C)c(Br)c(OC)n1)S(=O)(=O)c1ccc(C)cc1 [CBK028072] | 105% | 
CNc1nc(N)nc(OCC(F)(F)F)n1 [CBK028082] | 89.4% | 
CC(C)C(=O)N1N=C2CCCCC2C1(O)C(F)(F)F (stereo not drawn) [CBK028091] | 93.2% | 
CCOC(=O)c1c(C)nc(-c2ccccc2)nc1NC(=O)C(C)C [CBK028118] | 90.1% | 
COc1ccc(C(CNCC(O)COc2cccc3c2CCCC3)c2ccccc2)cc1 (stereo not drawn) [CBK028144] | 105% | 
CC#CC1CCCC2N(c3ccccc3)CCN12 (stereo not drawn) [CBK028191] | 119% | 
CCOC(=O)Nc1ccc2ccccc2n1 [CBK028207] | 87.3% | 
O=C(CCCc1ccccc1)Nc1cccnc1N1CCNCC1 [CBK028256T] | 93.1% | 
O=C(Cc1c[nH]c2ccccc12)Nc1cccnc1N1CCNCC1 [CBK028265T] | 105% | 
Cn1cc(CC(=O)Nc2ccc(N3CCNCC3)nc2)c2ccccc21 [CBK028275T] | 72.1% | 
O=C(COc1ccccc1)Nc1ccccc1N1CCNCC1 [CBK028279T] | 108% | 
O=C(Nc1ccccc1N1CCNCC1)C1(c2ccccc2)CCCCC1 [CBK028281T] | 99.9% | 
COc1ccc(CCCC(=O)Nc2ccccc2N2CCNCC2)cc1OC [CBK028283T] | 107% | 
O=C(CCS(=O)(=O)c1ccccc1)Nc1ccccc1N1CCNCC1 [CBK028285T] | 99.8% | 
O=C(Cc1c[nH]c2ccccc12)Nc1ccccc1N1CCNCC1 [CBK028288T] | 98.1% | 
O=C(CCCOc1ccccc1)Nc1cccc(N2CCNCC2)c1 [CBK028290T] | 95.4% | 
O=C(CCS(=O)(=O)c1ccccc1)NCc1ccccc1OC1CCNC1 (stereo not drawn) [CBK028296T] | 95.9% | 
CN(CC(=O)NCc1ccccc1OC1CCNC1)C(=O)c1ccccc1 (stereo not drawn) [CBK028298T] | 96.9% | 
CC(C)(C)CNc1ccc(S(=O)(=O)N2CCOC2=O)cc1 [CBK028347] | 113% | 
CC1CCN(C(=O)C2CCCCC2C(=O)O)CC1 (stereo not drawn) [CBK028392] | 107% | 

From publication PMC12040169 (PLOS Biology, 2025)
